Results: publication PMC11587507, “The Importance of Stereochemistry in 5-HT7R Modulation—A Case Study of Hydantoin Derivatives” (ACS Chemical Neuroscience, 2024)

Tests used:
[1] = test system: punished crossings; test: Four-plate test (FPT) in mice; type: in vivo
Method: (§1) The behavioral experiments were performed on male BalbC mice weighing 20–25 g, n = 333. The animals were purchased from the Animal House at the Faculty of Pharmacy, Jagiellonian University Medical College, Krakow, Poland. Mice were kept in groups of ten in Makrolon type 3 cages (dimensions 26.5 × 15 × 42 cm). The animals were kept in an environmentally controlled room (ambient temperature 22 ± 2 °C; relative humidity 50–60%; 12:12 light: dark cycle; and lights on at 8:00). They were allowed to acclimatize with the environment enriched by nesting material, tooth grinding material, houses, and toys for 1 week before commencement of the experiments. During acclimatization, mice were accustomed to the presence of female experimenters and their appropriate manner of animals’ restraint, i.e., cupping each separate mouse in open hands, according to the 3Rs recommendations (handling).[50],[51] Standard laboratory food (Sniff M-Z) and filtered water were freely available. All the experiments were conducted in the light phase between 9 AM and 2 PM. Experimental groups consisted of 6–10 randomly selected animals, depending on the experiment, and each animal was used only once. The experiments were performed by an observer who was unaware of the treatment administered. All the experimental procedures with mice were carried out under EU Directive 2010/63/EU and were approved by the Local Ethics Commission for Animal Experiments of Jagiellonian University in Krakow (Approval nos.:297/2019).
(§2) Compounds were injected once intraperitoneally (i.p.) 60 min before tests, at a volume of 10 mL/kg. Control animals received a vehicle injection according to the same schedule.
The four-plate apparatus (Bioseb, Pinellas Park, USA) was used for tests. Following a 15 s habituation period, the animal’s motivation to explore a novel environment is suppressed by an electric foot shock (0.8 mA, 0.5 s) every time it moves from one plate to another during a 1 min test session. This action is referred to as a “punished crossing” and is followed by a 3 s shock interval, during which the animal can move across plates without receiving a shock.[53]

[2] = test system: locomotor activity; test: Spontaneous locomotor activity in mice; type: in vivo
Method: as §1, §2
Locomotor activity was recorded with an Opto M3 multichannel activity monitor (Columbus Instruments, Columbus, USA). […] According to the 3Rs recommendations,[54] locomotor activity was assessed for the minimal active doses obtained in FST and/or FPT to ensure that detected antidepressant-/anxiolytic-like effects are not the result of increased motility of mice.

[3] = molecular target: T1, 5-HT1AR (Homo sapiens, UniProt P08908); test: Radioligand binding assay, [3H]-8-OH-DPAT displacement; details: mean ± SD from two independent measurements; read-out: Ki 5-HT1A
T1 sequence (P08908 1-422): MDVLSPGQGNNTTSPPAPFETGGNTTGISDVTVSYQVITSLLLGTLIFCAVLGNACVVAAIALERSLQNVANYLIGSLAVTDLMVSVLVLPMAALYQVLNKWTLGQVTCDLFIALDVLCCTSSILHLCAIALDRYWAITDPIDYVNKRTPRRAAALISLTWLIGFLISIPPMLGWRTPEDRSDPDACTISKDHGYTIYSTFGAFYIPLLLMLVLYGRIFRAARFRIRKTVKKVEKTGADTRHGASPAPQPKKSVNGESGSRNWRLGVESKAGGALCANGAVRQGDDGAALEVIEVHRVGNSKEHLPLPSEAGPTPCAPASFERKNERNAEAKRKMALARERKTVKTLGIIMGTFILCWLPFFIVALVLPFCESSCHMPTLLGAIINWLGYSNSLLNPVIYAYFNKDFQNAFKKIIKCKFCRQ
Method: (§3) Cell pellets were thawed and homogenized in 10 vol of assay buffer using an Ultra Turrax tissue homogenizer and centrifuged twice at 35 000 g for 15 min at 4 °C, with incubation for 15 min at 37 °C in between. The composition of the assay buffers was as follows: for 5-HT1AR: 50 mM Tris HCl, 0.1 mM EDTA, 4 mM MgCl2, 10 μM pargyline and 0.1% ascorbate; for 5-HT2AR: 50 mM Tris HCl, 0.1 mM EDTA, 4 mM MgCl2 and 0.1% ascorbate; for 5- HT7bR: 50 mM Tris HCl, 4 mM MgCl2, […] and 0.1% ascorbate; and for dopamine D2LR: 50 mM Tris HCl, 1 mM EDTA, 4 mM MgCl2, 120 mM NaCl, 5 mM KCl, 1.5 mM CaCl2 and 0.1% ascorbate. All assays were incubated in a total volume of […] in 96-well microtiter plates for 1 h at 37 °C, except 5-HT2AR which was incubated at 27 °C. The process of equilibration was terminated by rapid filtration through Unifilter plates with a 96-well cell harvester, and radioactivity retained on the filters was quantified on a Microbeta plate reader (PerkinElmer, USA). For displacement studies, the assay samples contained as radioligands (PerkinElmer, USA): 2.5 nM [^3H]-8-OH-DPAT (135.2 Ci/mmol) for 5-HT1AR; 1 nM [3H]-ketanserin (53.4 Ci/mmol) for 5- HT2AR; 0.8 nM [3H]-5- CT (39.2 Ci/mmol) for 5-HT7R or 2.5 nM [3H]-raclopride (72 Ci/mmol) for D2LR. Nonspecific binding was defined with […] of 5-HT in 5-HT7R binding experiments, whereas […] were used in 5-HT2AR and D2L assays, respectively. Each compound was tested in triplicate at 7 concentrations (10^–10–10^–4 M). The inhibition constants (Ki) were calculated using the Cheng–Prusoff equation.[48] Results were expressed as means of at least two separate experiments.

[4] = test system: immobility time; test: Forced swim test (FST, Porsolt's test) in mice; type: in vivo; details: 60 min before test
Method: as §1, §2
The FST experiment was carried out according to the method of Porsolt et al.[52] The total duration of immobility was recorded during the last 4 min of this 6 min period. The reduction of immobility time compared to the control was a measure of antidepressant properties of the tested compound. A mouse was regarded as immobile when it remained floating on water, making only small movements to keep its head above it.

[5] = molecular target: dopamine D2LR (Homo sapiens, UniProt P14416); test: Radioligand binding assay, [3H]-raclopride displacement; details: mean ± SD from two independent measurements; read-out: Ki D2
Method: as §3

[6] = molecular target: 5-HT2AR (Homo sapiens, UniProt P28223); test: Radioligand binding assay, [3H]-ketanserin displacement; details: mean ± SD from two independent measurements; read-out: Ki 5-HT2A
Method: as §3

[7] = test system: GABA (non-specific); test: GABA (non-specific) binding screening at 1 µM (Eurofins Cerep)
Method: (§4) 1.In vitro evaluation towards another related protein target (GABA, NK 1)
(§5) Table S2. Affinity results to GABA and NK 1 […]
(§6) Screening at 1 µM Screening at 1 µM
(§7) (% inhibition of control (% of inhibtion of control agonist response) specific binding) […]
(§8) adata are presented as the mean ± SD from two independent measurements
(§9) The above biological screening have been performed at Eurofins Cerep (2, rue du Professeur GARGOUÏL, B.P. 30001, 86 600 Celle l'Evescault, France according to previously described […]
(§10) Tsuji, A. et al. (1988), Antimicrob. Agents Chemother., 32: 190-194.
(§11) Eistetter, H.R. et al. (1992), Glia, 6: 89-95.
(§12) Detailed parameters for NK1 assay:
(§13) Detailed parameters for GABA (non-specific) assay: […]

[8] = molecular target: T2, NK1 (Homo sapiens, UniProt P25103); test: NK1 screening at 1 µM (Eurofins Cerep); type: cell-based; details: read-out: NK1 % inhibition of control agonist response
T2 construct: Eurofins Cerep
Method: as §4, §5, §6, §7, §8, §9, §10, §11, §12, §13

[9] = molecular target: T3, 5-HT7R (Homo sapiens, UniProt P34969); test: Radioligand binding assay, [3H]-5-CT displacement; details: for Ki: mean ± SD from two independent measurements, read-out: Ki 5-HT7
Method: as §3
Target sequence in this assay (P34969 1-432): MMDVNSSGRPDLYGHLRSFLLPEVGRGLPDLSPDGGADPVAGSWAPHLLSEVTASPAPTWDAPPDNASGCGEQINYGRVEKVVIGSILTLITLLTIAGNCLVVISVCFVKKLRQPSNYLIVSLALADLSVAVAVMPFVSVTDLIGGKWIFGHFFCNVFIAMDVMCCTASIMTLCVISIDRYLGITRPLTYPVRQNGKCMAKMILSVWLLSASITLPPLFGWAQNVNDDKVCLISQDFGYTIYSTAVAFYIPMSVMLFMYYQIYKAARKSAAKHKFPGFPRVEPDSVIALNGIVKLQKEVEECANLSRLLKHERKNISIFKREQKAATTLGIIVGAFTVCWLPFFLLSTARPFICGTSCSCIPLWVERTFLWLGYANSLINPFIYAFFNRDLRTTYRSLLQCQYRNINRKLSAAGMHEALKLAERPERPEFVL

[10] = molecular target: T3, 5-HT7R; test: cAMP functional assay (HTRF), antagonist effect, CHO cells; type: cell-based
Method: The cAMP concentration was measured using the HTRF method. Adenylate cyclase activity was expressed as the percentage of the maximal effect obtained with 300 nM serotonin. The compounds were tested at 7 concentrations (10^–12–10^–6 M) in the h5-HT7 antagonist effect.
Target sequence in this assay (P34969 1-445 isoform P34969-2): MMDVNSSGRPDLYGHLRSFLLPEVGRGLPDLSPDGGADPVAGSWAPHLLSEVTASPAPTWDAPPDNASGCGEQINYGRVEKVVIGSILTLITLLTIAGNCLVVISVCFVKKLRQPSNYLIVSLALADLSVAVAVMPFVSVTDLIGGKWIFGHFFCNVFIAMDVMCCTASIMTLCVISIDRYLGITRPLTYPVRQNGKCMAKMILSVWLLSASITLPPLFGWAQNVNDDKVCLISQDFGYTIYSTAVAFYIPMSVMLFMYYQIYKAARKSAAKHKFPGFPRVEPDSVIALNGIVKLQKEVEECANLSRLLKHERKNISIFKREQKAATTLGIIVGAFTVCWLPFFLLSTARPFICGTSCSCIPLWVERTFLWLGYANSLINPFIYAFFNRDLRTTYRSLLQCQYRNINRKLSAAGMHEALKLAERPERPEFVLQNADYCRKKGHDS

Sequence of 5-HT2AR (P28223 whole entry): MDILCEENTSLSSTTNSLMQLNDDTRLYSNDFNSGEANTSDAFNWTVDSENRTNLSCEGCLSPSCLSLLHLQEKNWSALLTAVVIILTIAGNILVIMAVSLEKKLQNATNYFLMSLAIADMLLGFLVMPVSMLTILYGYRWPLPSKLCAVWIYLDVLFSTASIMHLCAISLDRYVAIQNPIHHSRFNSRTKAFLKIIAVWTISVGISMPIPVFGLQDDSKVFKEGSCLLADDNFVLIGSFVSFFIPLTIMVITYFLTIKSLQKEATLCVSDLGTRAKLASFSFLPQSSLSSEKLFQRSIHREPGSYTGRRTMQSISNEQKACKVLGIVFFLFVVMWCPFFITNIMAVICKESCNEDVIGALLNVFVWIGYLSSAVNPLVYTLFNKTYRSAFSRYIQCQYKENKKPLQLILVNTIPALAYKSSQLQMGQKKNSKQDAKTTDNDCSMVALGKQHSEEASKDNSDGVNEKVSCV
Sequence of dopamine D2LR (P14416 whole entry): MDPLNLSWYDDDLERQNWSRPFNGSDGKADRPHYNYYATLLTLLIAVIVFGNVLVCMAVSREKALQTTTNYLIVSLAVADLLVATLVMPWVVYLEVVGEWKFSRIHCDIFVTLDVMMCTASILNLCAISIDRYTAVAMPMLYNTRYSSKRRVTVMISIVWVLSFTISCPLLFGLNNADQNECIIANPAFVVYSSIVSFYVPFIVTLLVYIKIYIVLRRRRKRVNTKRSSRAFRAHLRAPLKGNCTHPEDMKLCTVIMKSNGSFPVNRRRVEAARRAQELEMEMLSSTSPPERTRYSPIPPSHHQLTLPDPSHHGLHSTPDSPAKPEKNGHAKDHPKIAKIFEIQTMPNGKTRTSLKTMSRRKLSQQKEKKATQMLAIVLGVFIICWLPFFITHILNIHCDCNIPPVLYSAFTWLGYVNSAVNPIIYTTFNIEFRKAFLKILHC
T2 sequence (P25103 whole entry): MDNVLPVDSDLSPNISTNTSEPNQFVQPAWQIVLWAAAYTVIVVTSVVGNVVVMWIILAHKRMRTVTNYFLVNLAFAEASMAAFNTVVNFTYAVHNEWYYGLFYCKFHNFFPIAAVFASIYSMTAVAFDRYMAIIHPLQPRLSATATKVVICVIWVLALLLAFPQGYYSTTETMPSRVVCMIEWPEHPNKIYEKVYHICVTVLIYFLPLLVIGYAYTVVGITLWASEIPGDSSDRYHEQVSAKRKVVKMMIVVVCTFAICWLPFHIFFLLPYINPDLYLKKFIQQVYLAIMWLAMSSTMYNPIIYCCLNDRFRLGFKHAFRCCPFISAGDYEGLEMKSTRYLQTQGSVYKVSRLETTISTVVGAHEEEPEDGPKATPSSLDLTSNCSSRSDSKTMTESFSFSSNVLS

`COc1ccccc1N1CCN(CC(O)CN2C(=O)NC(C)(c3ccc(F)cc3)C2=O)CC1` (centres unmarked) [Compound 1] was tested, and the anxiolytic-like activity ([1]; i.p., all doses tested) was “inactive”, the “locomotor activity number of crossings ± SEM during 1 min” value ([2]; 2.5 mg/kg i.p.) was 10.50 ± 4.11; NS and the “locomotor activity number of crossings ± SEM during 60 min” value ([2]; 2.5 mg/kg i.p.) was 183.75 ± 33.41; p < 0.001. The Ki [3] was 121 ± 18 nM, the “decrease of immobility time vs vehicle” value ([4]; 2.5 mg/kg i.p.) was “about 32%” and the “decrease of immobility time vs vehicle” value ([4]; 5 mg/kg i.p.) was ~25%. The Ki [5] was 715 ± 163 nM.

`COc1ccccc1N1CCN(C[C@H](O)CN2C(=O)N[C@](C)(c3ccc(F)cc3)C2=O)CC1` [Compound 5.1, (R)-5-(4-Fluorophenyl)-3-((S)-2-hydroxy-3-(4-(2-methoxyphenyl)piperazin-1-yl)propyl)-5-methylimidazolidine-2,4-dione] showed a Ki [3] of 939 ± 153 nM and a Ki [5] of 462 ± 94 nM.

Work on `COc1ccccc1N1CCN(C[C@@H](O)CN2C(=O)N[C@](C)(c3ccc(F)cc3)C2=O)CC1` [Compound 5.2, (R)-5-(4-Fluorophenyl)-3-((R)-2-hydroxy-3-(4-(2-methoxyphenyl)piperazin-1-yl)propyl)-5-methylimidazolidine-2,4-dione] yielded a Ki [3] of 1880 ± 351 nM, a Ki [6] of 41100 nM and a Ki [5] of 712 ± 101 nM.

In the case of `COc1ccccc1N1CCN(C[C@H](O)CN2C(=O)N[C@@](C)(c3ccc(F)cc3)C2=O)CC1` [Compound 5.3, (S)-5-(4-Fluorophenyl)-3-((S)-2-hydroxy-3-(4-(2-methoxyphenyl)piperazin-1-yl)propyl)-5-methylimidazolidine-2,4-dione], the Ki [3] is reported as 219 ± 43 nM and the Ki [5] is reported as 1110 ± 137 nM.

For `COc1ccccc1N1CCN(C[C@@H](O)CN2C(=O)N[C@@](C)(c3ccc(F)cc3)C2=O)CC1` [Compound 5.4, (S)-5-(4-Fluorophenyl)-3-((R)-2-hydroxy-3-(4-(2-methoxyphenyl)piperazin-1-yl)propyl)-5-methylimidazolidine-2,4-dione], the “GABA (non-specific) % of inhibition of control specific binding” value [7] was 7%, the anxiolytic-like activity ([1]; i.p., all doses tested) was “inactive” and the “locomotor activity number of crossings ± SEM during 3–6 min” value ([2]; 5 mg/kg i.p.) was 138.75 ± 36.61; NS. The “locomotor activity number of crossings ± SEM during 1 min” value ([2]; 5 mg/kg i.p.) was 18.50 ± 8.00; NS, the “locomotor activity number of crossings ± SEM during 60 min” value ([2]; 5 mg/kg i.p.) was 716.25 ± 117.75; p < 0.001 and the Ki [3] was 306 ± 71 nM. The “decrease of immobility time vs vehicle” value ([4]; 5 mg/kg i.p.) was 25%, the “decrease of immobility time vs vehicle” value ([4]; 10 mg/kg i.p.) was 20% and the Ki [6] was 21800 nM. The inhibition at 1 µM [8] was 2.9% and the Ki [5] was 888 ± 97 nM.

`C[C@]1(c2ccc(F)cc2)NC(=O)N(C[C@@H](O)CN2CCN(C(c3ccccc3)c3ccccc3)CC2)C1=O` [Compound 6.1, (R)-3-((S)-3-(4-Benzhydrylpiperazin-1-yl)-2-hydroxypropyl)-5-(4-fluorophenyl)-5-methylimidazolidine-2,4-dione] gave a Ki [9] of 2900 ± 461 nM, a Ki [6] of 12300 nM and a Ki [5] of 463 ± 75 nM.

Work on `C[C@]1(c2ccc(F)cc2)NC(=O)N(C[C@H](O)CN2CCN(C(c3ccccc3)c3ccccc3)CC2)C1=O` [Compound 6.2, (R)-3-((R)-3-(4-Benzhydrylpiperazin-1-yl)-2-hydroxypropyl)-5-(4-fluorophenyl)-5-methylimidazolidine-2,4-dione] yielded a Ki [9] of 9090 ± 1700 nM, a Ki [6] of 11400 nM and a Ki [5] of 1520 ± 331 nM.

With `C[C@@]1(c2ccc(F)cc2)NC(=O)N(C[C@@H](O)CN2CCN(C(c3ccccc3)c3ccccc3)CC2)C1=O` [Compound 6.3, (S)-3-((S)-3-(4-Benzhydrylpiperazin-1-yl)-2-hydroxypropyl)-5-(4-fluorophenyl)-5-methylimidazolidine-2,4-dione] the Ki [9] was 120 ± 27 nM, the Ki [6] was 4130 ± 983 nM and the Ki [5] was 312 ± 52 nM.

With `C[C@@]1(c2ccc(F)cc2)NC(=O)N(C[C@H](O)CN2CCN(C(c3ccccc3)c3ccccc3)CC2)C1=O` [Compound 6.4, (S)-3-((R)-3-(4-Benzhydrylpiperazin-1-yl)-2-hydroxypropyl)-5-(4-fluorophenyl)-5-methylimidazolidine-2,4-dione] the “GABA (non-specific) % of inhibition of control specific binding” value [7] was 26%, the anxiolytic-like activity ([1]; 5 mg/kg i.p.) was “did not reach significant levels” and the anxiolytic-like activity ([1]; doses of 1.25, 2.5 and 10 mg/kg i.p.) was “active”. The “increase of number of punished crossings vs vehicle” value ([1]; i.p., active doses) was “about 60%”, the “locomotor activity number of crossings ± SEM during 3–6 min” value ([2]; 1.25 mg/kg i.p.) was 63.75 ± 25.93; NS and the “locomotor activity number of crossings ± SEM during 1 min” value ([2]; 1.25 mg/kg i.p.) was 4.25 ± 0.46; NS. The “locomotor activity number of crossings ± SEM during 60 min” value ([2]; 1.25 mg/kg i.p.) was 694.25 ± 78.90; NS, the “locomotor activity number of crossings ± SEM during 3–6 min” value ([2]; 2.5 mg/kg i.p.) was 105.75 ± 49.57; NS and the “locomotor activity number of crossings ± SEM during 60 min” value ([2]; 2.5 mg/kg i.p.) was 922.50 ± 74.78; p < 0.001. For the same molecule, the “intrinsic activity at 5-HT7R” value ([10]; cAMP functional test) was “antagonists”, the IC50 ([10]; cAMP, CHO cells, h5-HT7 antagonist effect vs 300 nM serotonin) was 113 ± 25 nM and the Kb ([10]; cAMP, CHO cells, h5-HT7 antagonist effect, read-out: Kb ± SEM) was 14 ± 3 nM. The Ki [3] was 8930 ± 1840 nM, the Ki [9] was 8 ± 3 nM and the “fold higher 5-HT7R affinity in comparison to 2” value ([9]; ratio of Ki values) was ~10 fold. For the same molecule, the “decrease of immobility time vs vehicle” value ([4]; 2.5 mg/kg i.p.) was 29%, the Ki [6] was 5790 ± 1070 nM and the inhibition at 1 µM [8] was -4.4%. The Ki [5] was 511 ± 96 nM.
